Measurements from patent US20260022142A1, “MACROCYCLIC IMMUNOMODULATORS” (Bristol-Myers Squibb Company, priority 2022, published 2026).
Bridge positions count the residues as written; N and C are the ends. Square brackets hold non-standard residues; d marks the D form. Peptide text beside a SMILES is read from it. * marks the point of attachment. ξ: configuration not given here. Bip = N[C@@H](Cc1ccc(-c2ccccc2)cc1)C(=O)O; Phe(3-Me) = Cc1cccc(C[C@H](N)C(=O)O)c1; hArg = N=C(N)NCCCC[C@H](N)C(=O)O; 3Thi = N[C@@H](Cc1ccsc1)C(=O)O; Cha = N[C@@H](CC1CCCCC1)C(=O)O; Cit = NC(=O)NCCC[C@H](N)C(=O)O; Thr(3ξ) = CC(O)[C@H](N)C(=O)O; 12Ado = NCCCCCCCCCCCC(=O)O; Carboxymethyl = O=C(O)C*; Orn = NCCC[C@H](N)C(=O)O; Aun = NCCCCCCCCCCC(=O)O; Dab = NCC[C@H](N)C(=O)O; Dap = NC[C@H](N)C(=O)O; Piv = CC(C)(C)C(=O)*

Target: T1, PD-1/PD-L1 interaction (PE-labeled human PD-L1-Ig binding to Jurkat cell line over-expressing human PD-1) (Homo sapiens, UniProt Q15116)
T1 construct: expressed in transfected cells; host or cells: Jurkat
Assay: Jurkat-PD-1 Cell Binding High-Content Screening Assay (CBA)
Assay type: cell-based
Details: Jurkat cell line over-expressing human PD-1; PE-labeled PD-L1-Ig 20 nM final; read-out: Jurkat hPD1-PDL1 IC50
Summary of the method: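 Read-out is high-content imaging of cell-bound phycoerythrin-tagged PD-L1-Ig on fixed, Hoechst-counterstained Jurkat cells that over-express human PD-1. Compound exposure lasts 2 h at 37° C before the labeled ligand (20 nM final) is added for a further hour.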

T1 sequence (Q15116 25-288): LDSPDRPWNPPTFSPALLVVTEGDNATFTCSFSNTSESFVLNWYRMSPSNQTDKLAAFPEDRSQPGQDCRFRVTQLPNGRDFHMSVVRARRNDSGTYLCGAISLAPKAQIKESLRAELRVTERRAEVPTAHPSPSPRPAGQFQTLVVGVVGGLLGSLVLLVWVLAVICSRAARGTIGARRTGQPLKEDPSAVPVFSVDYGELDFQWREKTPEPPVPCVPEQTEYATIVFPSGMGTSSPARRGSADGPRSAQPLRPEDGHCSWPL

Work on Cc1cccc(C[C@@H]2NC(=O)[C@H](CC(=O)O)NC(=O)[C@H](Cc3ccc(OCC(=O)O)cc3)NC(=O)[C@H](CCCNC(=N)N)NC(=O)CSC[C@@H](C(=O)N[C@@H](CCCCN)C(=O)N[C@@H](CO)C(=O)NCCCCCCCCCCCC(=O)O)NC(=O)[C@H](CN)NC(=O)[C@H](C(C)C)NC(=O)[C@H](CC3CCCCC3)NC(=O)[C@H](CCN)NC(=O)[C@@H](CC(C)C)NC(=O)[C@H](CCCN)NC(=O)[C@H](C(C)C)NC(=O)[C@H](Cc3ccc(-c4ccccc4)cc3)NC(=O)[C@H](C(C)C)NC2=O)c1 [Compound 3535] ({CH2CO}-RY(Carboxymethyl)D[Phe(3-Me)]V[Bip]V[Orn][dL][Dab][Cha]V[Dap]CKS[12Ado]-OH; thioether N-14) yielded an IC50 of 13.4 nM.

Cc1cccc(C[C@@H]2NC(=O)[C@H](CC(=O)O)NC(=O)[C@H](Cc3ccc(OCC(=O)O)cc3)NC(=O)[C@H](CCCCNC(=N)N)NC(=O)CSC[C@@H](C(=O)N[C@@H](CCN)C(=O)N[C@@H](CO)C(=O)NCCCCCCCCCCCC(=O)O)NC(=O)[C@H](C(C)O)NC(=O)[C@H](C(C)O)NC(=O)[C@H](CC3CCCCC3)NC(=O)[C@H](CCN)NC(=O)[C@@H](CC(C)C)NC(=O)[C@H](CCCN)NC(=O)[C@H](CCCNC(=N)N)NC(=O)[C@H](Cc3ccc(-c4ccccc4)cc3)NC(=O)[C@H](C(C)C)NC2=O)c1 (stereo partly drawn) [Compound 3537] ({CH2CO}-[hArg]Y(Carboxymethyl)D[Phe(3-Me)]V[Bip]R[Orn][dL][Dab][Cha][Thr(3ξ)][Thr(3ξ)]C[Dab]S[12Ado]-OH; thioether N-14) was tested, and the IC50 was 29.9 nM.

Work on CC(=O)NCCCC[C@@H]1NC(=O)CSC[C@@H](C(=O)N[C@@H](CCN)C(=O)NCCCCCCCCCCC(=O)O)NC(=O)[C@H](C(C)O)NC(=O)[C@H](C(C)C)NC(=O)[C@H](CC2CCCCC2)NC(=O)[C@H](CCN)NC(=O)[C@@H](CC(C)C)NC(=O)[C@H](CCCN)NC(=O)[C@H](CCCNC(N)=O)NC(=O)[C@H](Cc2ccc(-c3ccccc3)cc2)NC(=O)[C@H](C(C)C)NC(=O)[C@H](Cc2cccc(C)c2)NC(=O)[C@H](CC(=O)O)NC(=O)[C@H](Cc2ccc(OCC(=O)O)cc2)NC1=O (stereo partly drawn) [Compound 3538] ({CH2CO}-K(Ac)Y(Carboxymethyl)D[Phe(3-Me)]V[Bip][Cit][Orn][dL][Dab][Cha]V[Thr(3ξ)]C[Dab][Aun]-OH; thioether N-14) yielded an IC50 of 26.3 nM.

Compound Cc1cccc(C[C@@H]2NC(=O)[C@H](CC(=O)O)NC(=O)[C@H](Cc3ccc(OCC(=O)O)cc3)NC(=O)[C@H](CCCCNC(=O)C(C)(C)C)NC(=O)CSC[C@@H](C(=O)N[C@@H](CCN)C(=O)NCCCCCCCCCCC(=O)O)NC(=O)[C@H](C(C)O)NC(=O)[C@H](C(C)C)NC(=O)[C@H](CC3CCCCC3)NC(=O)[C@H](CCN)NC(=O)[C@@H](CC(C)C)NC(=O)[C@H](CCCN)NC(=O)[C@H](CCCNC(N)=O)NC(=O)[C@H](Cc3ccc(-c4ccccc4)cc3)NC(=O)[C@H](C(C)C)NC2=O)c1 (stereo partly drawn) [Compound 3539] ({CH2CO}-K(Piv)Y(Carboxymethyl)D[Phe(3-Me)]V[Bip][Cit][Orn][dL][Dab][Cha]V[Thr(3ξ)]C[Dab][Aun]-OH; thioether N-14) has an IC50 of 39.9 nM.

Work on CC(=O)NCCCC[C@@H]1NC(=O)[C@H](Cc2ccc(-c3ccccc3)cc2)NC(=O)[C@H](Cc2ccc(O)cc2)NC(=O)[C@H](Cc2cccc(C)c2)NC(=O)[C@H](CC(=O)O)NC(=O)[C@H](Cc2ccc(OCC(=O)O)cc2)NC(=O)[C@H](CCCNC(=N)N)NC(=O)CSC[C@@H](C(=O)N[C@H](CC(N)=O)C(=O)NCCCCCCCCCCC(=O)O)NC(=O)[C@H](C(C)O)NC(=O)[C@H](C(C)C)NC(=O)[C@H](CC2CCCCC2)NC(=O)[C@H](CCN)NC(=O)[C@@H](CC(C)C)NC(=O)[C@H](CCCNC(N)=O)NC1=O (stereo partly drawn) [Compound 3541] ({CH2CO}-RY(Carboxymethyl)D[Phe(3-Me)]Y[Bip]K(Ac)[Cit][dL][Dab][Cha]V[Thr(3ξ)]C[dN][Aun]-OH; thioether N-14) yielded an IC50 of 10 nM.

With Cc1cccc(C[C@@H]2NC(=O)[C@H](CC(=O)O)NC(=O)[C@H](Cc3ccc(OCC(=O)O)cc3)NC(=O)[C@H](CCCNC(=N)N)NC(=O)CSC[C@@H](C(=O)N[C@H](CC(N)=O)C(=O)NCCCCCCCCCCC(=O)O)NC(=O)[C@H](C(C)O)NC(=O)[C@H](C(C)C)NC(=O)[C@H](CC3CCCCC3)NC(=O)[C@H](CCN)NC(=O)[C@@H](CC(C)C)NC(=O)[C@H](CCCNC(=N)N)NC(=O)[C@H](CCCCNC(=O)C(C)(C)C)NC(=O)[C@H](Cc3ccc(-c4ccccc4)cc3)NC(=O)[C@H](Cc3ccc(O)cc3)NC2=O)c1 (stereo partly drawn) [Compound 3542] ({CH2CO}-RY(Carboxymethyl)D[Phe(3-Me)]Y[Bip]K(Piv)R[dL][Dab][Cha]V[Thr(3ξ)]C[dN][Aun]-OH; thioether N-14) the IC50 was 38.2 nM.

With CC(=O)NCCCC[C@@H]1NC(=O)[C@H](Cc2ccc(-c3ccccc3)cc2)NC(=O)[C@H](Cc2ccc(O)cc2)NC(=O)[C@H](Cc2cccc(C)c2)NC(=O)[C@H](CC(=O)O)NC(=O)[C@H](Cc2ccc(OCC(=O)O)cc2)NC(=O)[C@H](CCCNC(=N)N)NC(=O)CSC[C@@H](C(=O)N[C@H](CC(N)=O)C(=O)NCCCCCCCCCCC(=O)O)NC(=O)[C@H](C(C)O)NC(=O)[C@H](C(C)C)NC(=O)[C@H](CC2CCCCC2)NC(=O)[C@H](CCN)NC(=O)[C@@H](CC(C)C)NC(=O)[C@H](CCC(N)=O)NC1=O (stereo partly drawn) [Compound 3543] ({CH2CO}-RY(Carboxymethyl)D[Phe(3-Me)]Y[Bip]K(Ac)Q[dL][Dab][Cha]V[Thr(3ξ)]C[dN][Aun]-OH; thioether N-14) the IC50 was 13.3 nM.

Cc1cccc(C[C@@H]2NC(=O)[C@H](CC(=O)O)NC(=O)[C@H](Cc3ccc(OCC(=O)O)cc3)NC(=O)[C@H](CCCNC(=N)N)NC(=O)CSC[C@@H](C(=O)N[C@@H](CCN)C(=O)NCCCCCCCCCCC(=O)O)NC(=O)[C@H](Cc3ccsc3)NC(=O)[C@H](C(C)C)NC(=O)[C@H](CC3CCCCC3)NC(=O)[C@H](CCN)NC(=O)[C@@H](CC(C)C)NC(=O)[C@H](CCCN)NC(=O)[C@H](Cc3ccc(OCC(=O)O)cc3)NC(=O)[C@H](Cc3ccc(-c4ccccc4)cc3)NC(=O)[C@H](Cc3ccc(OCC(=O)O)cc3)NC2=O)c1 [Compound 3545] ({CH2CO}-RY(Carboxymethyl)D[Phe(3-Me)]Y(Carboxymethyl)[Bip]Y(Carboxymethyl)[Orn][dL][Dab][Cha]V[3Thi]C[Dab][Aun]-OH; thioether N-14) was tested, and the IC50 was 155 nM.

With Cc1cccc(C[C@@H]2NC(=O)[C@H](CC(=O)O)NC(=O)[C@H](Cc3ccc(OCC(=O)O)cc3)NC(=O)[C@H](CCCCNC(=N)N)NC(=O)CSC[C@@H](C(=O)N[C@@H](CCCCN)C(=O)N[C@@H](CO)C(=O)NCCCCCCCCCCC(=O)O)NC(=O)[C@H](C(C)O)NC(=O)[C@H](C(C)O)NC(=O)[C@H](CC3CCCCC3)NC(=O)[C@H](CCN)NC(=O)[C@@H](CC(C)C)NC(=O)[C@H](CCCN)NC(=O)[C@H](CCCNC(=N)N)NC(=O)[C@H](Cc3ccc(-c4ccccc4)cc3)NC(=O)[C@H](C(C)C)NC2=O)c1 (stereo partly drawn) [Compound 3547] ({CH2CO}-[hArg]Y(Carboxymethyl)D[Phe(3-Me)]V[Bip]R[Orn][dL][Dab][Cha][Thr(3ξ)][Thr(3ξ)]CKS[Aun]-OH; thioether N-14) the IC50 was 74 nM.

In the case of CC(=O)NCCCC[C@@H]1NC(=O)[C@H](Cc2ccc(-c3ccccc3)cc2)NC(=O)[C@H](C(C)C)NC(=O)[C@H](Cc2cccc(C)c2)NC(=O)[C@H](CC(=O)O)NC(=O)[C@H](Cc2ccc(OCC(=O)O)cc2)NC(=O)[C@H](CCCNC(=N)N)NC(=O)CSC[C@@H](C(=O)N[C@H](CC(N)=O)C(=O)NCCCCCCCCCCC(=O)O)NC(=O)[C@H](C(C)O)NC(=O)[C@H](C(C)C)NC(=O)[C@H](CC2CCCCC2)NC(=O)[C@H](CCN)NC(=O)[C@@H](CC(C)C)NC(=O)[C@H](CCCN)NC1=O (stereo partly drawn) [Compound 3548] ({CH2CO}-RY(Carboxymethyl)D[Phe(3-Me)]V[Bip]K(Ac)[Orn][dL][Dab][Cha]V[Thr(3ξ)]C[dN][Aun]-OH; thioether N-14), the IC50 is reported as 11.1 nM.

With Cc1cccc(C[C@@H]2NC(=O)[C@H](CC(=O)O)NC(=O)[C@H](Cc3ccc(OCC(=O)O)cc3)NC(=O)[C@H](CCCNC(=N)N)NC(=O)CSC[C@@H](C(=O)N[C@@H](CCCCN)C(=O)N[C@@H](CO)C(=O)NCCCCCCCCCCCC(=O)O)NC(=O)[C@H](C(C)O)NC(=O)[C@H](C(C)C)NC(=O)[C@H](CC3CCCCC3)NC(=O)[C@H](CCN)NC(=O)[C@@H](CC(C)C)NC(=O)[C@H](CCCN)NC(=O)[C@H](CCCNC(N)=O)NC(=O)[C@H](Cc3ccc(-c4ccccc4)cc3)NC(=O)[C@H](C(C)C)NC2=O)c1 (stereo partly drawn) [Compound 3549] ({CH2CO}-RY(Carboxymethyl)D[Phe(3-Me)]V[Bip][Cit][Orn][dL][Dab][Cha]V[Thr(3ξ)]CKS[12Ado]-OH; thioether N-14) the IC50 was 37 nM.

Cc1cccc(C[C@@H]2NC(=O)[C@H](CC(=O)O)NC(=O)[C@H](Cc3ccc(OCC(=O)O)cc3)NC(=O)[C@H](CCCNC(=N)N)NC(=O)CSC[C@@H](C(=O)N[C@@H](CCCCN)C(=O)N[C@@H](CO)C(=O)NCCCCCCCCCCCC(=O)O)NC(=O)[C@H](C(C)O)NC(=O)[C@H](C(C)C)NC(=O)[C@H](CC3CCCCC3)NC(=O)[C@H](CCN)NC(=O)[C@@H](CC(C)C)NC(=O)[C@H](CCCN)NC(=O)[C@H](CCCNC(=N)N)NC(=O)[C@H](Cc3ccc(-c4ccccc4)cc3)NC(=O)[C@H](Cc3ccc(O)cc3)NC2=O)c1 (stereo partly drawn) [Compound 3550] ({CH2CO}-RY(Carboxymethyl)D[Phe(3-Me)]Y[Bip]R[Orn][dL][Dab][Cha]V[Thr(3ξ)]CKS[12Ado]-OH; thioether N-14) was tested, and the IC50 was 76.2 nM.

With Cc1cccc(C[C@@H]2NC(=O)[C@H](CC(=O)O)NC(=O)[C@H](Cc3ccc(OCC(=O)O)cc3)NC(=O)[C@H](CCCCNC(=N)N)NC(=O)CSC[C@@H](C(=O)N[C@@H](CCN)C(=O)NCCCCCCCCCCCC(=O)O)NC(=O)[C@H](C(C)O)NC(=O)[C@H](C(C)C)NC(=O)[C@H](CC3CCCCC3)NC(=O)[C@H](CCN)NC(=O)[C@@H](CC(C)C)NC(=O)[C@H](CCCN)NC(=O)[C@H](CCCNC(N)=O)NC(=O)[C@H](Cc3ccc(-c4ccccc4)cc3)NC(=O)[C@H](C(C)C)NC2=O)c1 (stereo partly drawn) [Compound 3551] ({CH2CO}-[hArg]Y(Carboxymethyl)D[Phe(3-Me)]V[Bip][Cit][Orn][dL][Dab][Cha]V[Thr(3ξ)]C[Dab][12Ado]-OH; thioether N-14) the IC50 was 33.4 nM.
